Measured values reported in patent US20250325710A1, “Advanced In Vivo Platform to Study Human Neural Maturation and Circuit Integration” (priority 2022, published 2025).

Tests used:
AMPA receptor [1] = assay: Whole-cell recordings of evoked EPSCs in t-hCS human neurons in acute thalamocortical slices; assay type: cell-based; settings: evoked by electrical stimulation of rat S1, internal capsule, white matter or t-hCS, or optogenetic activation of thalamic terminals; NBQX 10 μM
AMPA receptor [2] = assay: Whole-cell recordings of blue light-evoked EPSCs in rat pyramidal cortical neurons in acute brain slices (activation of t-hCS axons); assay type: cell-based; settings: evoked by blue light activation of t-hCS axons; NBQX 10 μM
PORCN [3] = settings: HEK293 cells; read-out: IC50, Wnt3A-mediated activation of a multimerized TCF-binding site driving luciferase; cited from earlier work
[4] = biological target: element-binding protein (CBP) (Homo sapiens, UniProt Q92793); settings: cited from earlier work
Wnt signaling = settings: TM3 cells; cited from earlier work
TNKS2 = biological target: T1, TNKS2 (Homo sapiens, UniProt Q9H2K2); settings: cited from earlier work
T1 sequence (Q9H2K2 1-1166): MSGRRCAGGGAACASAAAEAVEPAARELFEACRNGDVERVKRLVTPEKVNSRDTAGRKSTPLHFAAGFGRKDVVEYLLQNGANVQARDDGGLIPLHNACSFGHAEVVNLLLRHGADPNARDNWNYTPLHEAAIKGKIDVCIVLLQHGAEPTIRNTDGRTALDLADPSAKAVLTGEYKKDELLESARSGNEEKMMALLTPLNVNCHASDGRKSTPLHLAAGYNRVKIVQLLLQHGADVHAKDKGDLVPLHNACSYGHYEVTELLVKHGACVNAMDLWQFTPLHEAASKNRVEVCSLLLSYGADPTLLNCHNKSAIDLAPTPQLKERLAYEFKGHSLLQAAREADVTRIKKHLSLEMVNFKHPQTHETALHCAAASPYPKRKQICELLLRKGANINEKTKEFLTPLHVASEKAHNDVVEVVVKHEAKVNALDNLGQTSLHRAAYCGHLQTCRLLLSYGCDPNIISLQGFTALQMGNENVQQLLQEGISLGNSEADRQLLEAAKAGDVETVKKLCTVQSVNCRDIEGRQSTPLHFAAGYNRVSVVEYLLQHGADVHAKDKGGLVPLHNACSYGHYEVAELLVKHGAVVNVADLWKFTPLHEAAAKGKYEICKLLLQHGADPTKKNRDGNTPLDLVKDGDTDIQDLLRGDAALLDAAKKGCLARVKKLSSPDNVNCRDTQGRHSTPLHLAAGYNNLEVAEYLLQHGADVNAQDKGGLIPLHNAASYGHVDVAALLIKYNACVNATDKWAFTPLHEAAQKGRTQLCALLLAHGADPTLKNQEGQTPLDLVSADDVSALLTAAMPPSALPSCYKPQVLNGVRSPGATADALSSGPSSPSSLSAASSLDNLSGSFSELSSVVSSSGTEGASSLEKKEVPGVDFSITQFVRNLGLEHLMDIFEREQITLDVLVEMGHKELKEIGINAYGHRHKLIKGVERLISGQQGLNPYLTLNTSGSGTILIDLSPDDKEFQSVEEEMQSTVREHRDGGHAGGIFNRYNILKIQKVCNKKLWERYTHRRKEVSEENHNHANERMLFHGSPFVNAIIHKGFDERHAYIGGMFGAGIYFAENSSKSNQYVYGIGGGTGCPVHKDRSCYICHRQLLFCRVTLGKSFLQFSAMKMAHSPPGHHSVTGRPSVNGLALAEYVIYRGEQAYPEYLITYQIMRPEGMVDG

Smo heptahelical domain = Smo heptahelical domain (Homo sapiens, UniProt Q99835); settings: cited from earlier work
[5] = system: blue light-evoked EPSCs in rat pyramidal cortical neurons; assay type: cell-based
[6] = system: Wnt processing and secretion; settings: cell-free assay; cited from earlier work
[7] = system: Wnt-stimulated cellular responses; settings: cited from earlier work
PORCN [8] = settings: read-out: EC50, Porcn inhibitor; cited from earlier work

Sequence of Smo heptahelical domain (Q99835 28-787): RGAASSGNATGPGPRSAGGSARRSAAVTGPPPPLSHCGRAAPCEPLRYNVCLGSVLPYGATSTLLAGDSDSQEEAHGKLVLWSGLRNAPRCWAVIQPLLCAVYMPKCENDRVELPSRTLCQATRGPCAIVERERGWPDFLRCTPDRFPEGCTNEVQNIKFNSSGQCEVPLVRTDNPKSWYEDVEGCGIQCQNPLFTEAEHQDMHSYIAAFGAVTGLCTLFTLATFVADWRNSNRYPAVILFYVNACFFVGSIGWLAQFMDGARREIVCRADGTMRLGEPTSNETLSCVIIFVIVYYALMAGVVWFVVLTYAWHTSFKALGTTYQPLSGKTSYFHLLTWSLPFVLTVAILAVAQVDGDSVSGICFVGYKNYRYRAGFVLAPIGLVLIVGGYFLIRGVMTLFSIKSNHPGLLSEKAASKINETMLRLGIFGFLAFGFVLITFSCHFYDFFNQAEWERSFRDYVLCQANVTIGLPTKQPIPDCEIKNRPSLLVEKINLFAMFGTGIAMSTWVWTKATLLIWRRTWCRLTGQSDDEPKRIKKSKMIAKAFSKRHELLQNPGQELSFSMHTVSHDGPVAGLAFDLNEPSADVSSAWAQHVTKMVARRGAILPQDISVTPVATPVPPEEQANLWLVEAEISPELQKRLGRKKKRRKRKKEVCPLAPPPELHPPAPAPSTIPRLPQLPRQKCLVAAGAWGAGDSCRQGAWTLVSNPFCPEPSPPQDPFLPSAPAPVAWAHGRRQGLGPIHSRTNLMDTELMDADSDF
Sequence of element-binding protein (CBP) (Q92793 whole entry): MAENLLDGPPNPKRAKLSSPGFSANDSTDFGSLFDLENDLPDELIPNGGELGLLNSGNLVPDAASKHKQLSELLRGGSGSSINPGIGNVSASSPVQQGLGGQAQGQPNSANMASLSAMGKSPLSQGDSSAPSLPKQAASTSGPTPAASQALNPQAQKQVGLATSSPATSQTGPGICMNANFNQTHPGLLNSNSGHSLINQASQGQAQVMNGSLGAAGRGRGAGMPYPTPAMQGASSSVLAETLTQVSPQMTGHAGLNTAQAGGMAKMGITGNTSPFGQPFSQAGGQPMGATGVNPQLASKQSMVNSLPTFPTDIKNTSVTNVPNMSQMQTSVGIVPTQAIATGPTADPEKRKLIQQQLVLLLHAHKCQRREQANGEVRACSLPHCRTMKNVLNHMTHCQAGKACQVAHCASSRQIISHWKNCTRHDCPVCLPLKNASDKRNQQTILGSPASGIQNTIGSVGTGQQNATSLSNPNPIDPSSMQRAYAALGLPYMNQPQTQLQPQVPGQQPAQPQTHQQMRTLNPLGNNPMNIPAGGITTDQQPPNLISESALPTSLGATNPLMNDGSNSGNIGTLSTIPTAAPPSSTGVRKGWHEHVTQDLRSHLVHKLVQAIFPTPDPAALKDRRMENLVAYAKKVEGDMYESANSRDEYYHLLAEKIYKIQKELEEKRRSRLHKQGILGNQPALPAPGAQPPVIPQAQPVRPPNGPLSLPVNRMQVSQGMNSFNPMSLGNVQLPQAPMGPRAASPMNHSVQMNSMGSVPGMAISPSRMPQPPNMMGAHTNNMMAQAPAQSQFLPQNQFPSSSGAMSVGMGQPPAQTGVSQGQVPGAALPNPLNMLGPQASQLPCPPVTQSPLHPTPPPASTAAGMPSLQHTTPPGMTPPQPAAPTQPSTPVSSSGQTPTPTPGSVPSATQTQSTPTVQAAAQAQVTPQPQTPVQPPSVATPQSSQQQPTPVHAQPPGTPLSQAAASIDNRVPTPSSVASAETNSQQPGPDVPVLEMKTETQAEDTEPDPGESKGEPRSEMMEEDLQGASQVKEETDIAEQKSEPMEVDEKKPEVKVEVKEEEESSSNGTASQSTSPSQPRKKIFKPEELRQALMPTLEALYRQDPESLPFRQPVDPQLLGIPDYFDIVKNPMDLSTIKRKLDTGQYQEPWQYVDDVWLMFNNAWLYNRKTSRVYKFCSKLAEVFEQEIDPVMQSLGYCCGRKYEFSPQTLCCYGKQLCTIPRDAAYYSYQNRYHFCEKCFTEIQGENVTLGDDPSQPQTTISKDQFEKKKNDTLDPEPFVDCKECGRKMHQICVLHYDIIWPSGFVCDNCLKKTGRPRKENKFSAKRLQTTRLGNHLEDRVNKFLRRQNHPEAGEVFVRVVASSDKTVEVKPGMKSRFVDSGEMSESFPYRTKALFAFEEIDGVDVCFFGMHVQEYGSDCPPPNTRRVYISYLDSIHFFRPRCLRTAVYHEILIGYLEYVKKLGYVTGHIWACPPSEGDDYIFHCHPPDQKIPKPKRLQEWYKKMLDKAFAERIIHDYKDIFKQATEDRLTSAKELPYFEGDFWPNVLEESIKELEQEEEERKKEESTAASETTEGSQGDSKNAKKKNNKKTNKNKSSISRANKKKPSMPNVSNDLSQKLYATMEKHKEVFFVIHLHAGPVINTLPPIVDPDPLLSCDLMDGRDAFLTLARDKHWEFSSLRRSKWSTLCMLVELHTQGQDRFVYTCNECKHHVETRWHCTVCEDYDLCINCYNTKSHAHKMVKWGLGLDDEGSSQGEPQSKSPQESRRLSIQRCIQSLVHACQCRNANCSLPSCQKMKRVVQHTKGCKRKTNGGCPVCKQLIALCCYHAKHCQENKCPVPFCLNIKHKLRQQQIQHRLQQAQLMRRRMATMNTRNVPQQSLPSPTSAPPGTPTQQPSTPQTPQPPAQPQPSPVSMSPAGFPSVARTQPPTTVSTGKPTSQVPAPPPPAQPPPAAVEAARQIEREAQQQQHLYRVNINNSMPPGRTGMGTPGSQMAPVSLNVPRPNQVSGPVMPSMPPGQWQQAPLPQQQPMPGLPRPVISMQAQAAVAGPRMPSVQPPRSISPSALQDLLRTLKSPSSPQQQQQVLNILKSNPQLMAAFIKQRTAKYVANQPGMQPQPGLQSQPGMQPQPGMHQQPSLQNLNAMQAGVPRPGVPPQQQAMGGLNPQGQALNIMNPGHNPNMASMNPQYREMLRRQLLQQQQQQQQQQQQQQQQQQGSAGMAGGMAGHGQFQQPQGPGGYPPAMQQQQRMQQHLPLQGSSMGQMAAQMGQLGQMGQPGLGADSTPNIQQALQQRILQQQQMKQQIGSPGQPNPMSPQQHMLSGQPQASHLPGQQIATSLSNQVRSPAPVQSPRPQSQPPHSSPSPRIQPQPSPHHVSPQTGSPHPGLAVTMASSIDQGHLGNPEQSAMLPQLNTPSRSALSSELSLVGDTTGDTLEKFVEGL

NS(=O)(=O)c1cccc2c1c([N+](=O)[O-])cc1nc(O)c(O)nc12 [NBQX]
Effect on short latency EPSCs in human t-hCS neurons (AMPA receptor [1]): blocked
Effect on short-latency EPSCs in rat pyramidal cortical neurons (AMPA receptor [2]): blocked

Cc1cc(-c2ccc(CC(=O)Nc3ccc(-c4cccnc4)cc3)cc2)ccn1 [Wnt-C59]
IC50 (PORCN [3]): 0.074 nM

O=C1[C@H](Cc2ccc(O)cc2)N2C(=O)CCN(C(=O)NCc3ccccc3)[C@H]2CN1Cc1cccc2ccccc12 [ICG-001]
IC50 [4]: 3000 nM

Cc1cc(-c2ncc(CC(=O)Nc3ccc(-c4cnccn4)cn3)cc2C)ccn1 [LGK-974]
IC50 (Wnt signaling): 0.4 nM

COc1ccc(-n2c(SCCCN3C(=O)c4cccc5cccc(c45)C3=O)nnc2-c2ccncc2)cc1 [WIKI4]
IC50 (TNKS2): 15 nM

CNC1CCC(N(Cc2cccc(-c3ccncc3)c2)C(=O)c2sc3ccccc3c2Cl)CC1 (centres unmarked) [SAG]
Kd (Smo heptahelical domain): 59 nM

Nc1ccncc1 [4-AP, 4 Amino-Pyridine]
Effect on blue light-evoked responses in rat cortical neurons [5]: recovered

Cc1ccc2nc(NC(=O)CSc3nc4c(c(=O)n3-c3ccccc3)SCC4)sc2c1 [IWP-2]
IC50 [6]: 27 nM
Effect against Wnt-stimulated cellular responses [7]: no effect

O=C(CSc1nc2c(c(=O)n1-c1ccccc1)SCC2)Nc1ccc(-c2ccccc2)cn1 [IWP-L6]
EC50 (PORCN [8]): 0.5 nM
